Experimental findings from patent US20040048195A1, “Heat-sensitive lithographic printing plate precursor” (AGFA-GEVAERT, priority 2002, published 2004) are described below.

What all share (format): physicochemical
Series [1] in a line: Solubility of the IR-dyes (supersaturated solution, filtration, spectrophotometric determination). The note with it: for solubility: thermodynamic from solid. As for the experimental part:
The solubility of the IR-dyes IR-1 to −5 and of a comparison dye Cl (commercially available from FEW Chemicals GmbH) was determined as follows:
the extinction coefficient of the dyes was measured in methanol with a HP8453 UV/VIS/NIR spectrophotometer;
a supersaturated solution of the dyes in a) 2-methoxyl-propanol (MOP) and b) water/NaOH (pH=9) was prepared; after filtration the concentration of dissolved dye was determined by dissolution with methanol using the previous determined extinction coefficient. [drawing 8]

Series [2] in a line: Test of inhibiting capability of the dyes: dissolution time of unexposed novolac/dye coating in Agfa EP26 developer. The note with it: dye 35 mg/m^2 in 0.9 g/m^2 novolac, Agfa EP26 developer at 20° C., reference without dye 30 sec. As for the experimental part:
A layer of novolac (Alnovol SPN452 from Clariant, a 40.5 wt. % solution in methoxypropanol) and the dyes specified in Table 2 were coated on the above support. After drying during 1 min at 130° C., the samples contained 0.9 g/m^2 of novolac. A series of unexposed samples is immersed in Agfa EP26 developer at 20° C., each sample during a different time period. After the immersion period, the sample was removed from the developer, immediately rinsed with water, dried and then the dissolution of the coating in the developer was measured by comparing the weight of the sample before and after the development. As soon as the coating is dissolved completely, no more weight loss is measured upon longer immersion time periods, i.e. a curve representing weight loss as a function of immersion time reaches a plateau from the moment of complete dissolution of the layer, which is referred to herein as “dissolution time”. When the dissolution time of the sample containing the IR dye is longer than the dissolution time of the sample without the IR dye, then the IR dye clearly acts as an inhibitor.

Series [3] is described as follows: Solubility of the IR-dyes (supersaturated solution, filtration, spectrophotometric determination). To be noted: water/NaOH, pH 11.7, aqueous buffer, thermodynamic from solid, insoluble at pH = 9; NaOH was added until pH = 11.7; read-out: Solubility in H2O/NaOH.

Each structure is given as a SMILES string. Where two headings read alike, the source gives them in different places. Some results are limits rather than exact numbers.

For `CN1/C(=C/C=C2\CCCC(/C=C/C3=[N+](C)c4ccc5ccccc5c4C3(C)C)=C2Cl)C(C)(C)c2c1ccc1ccccc21` [Comparison, reference compound], the solubility in series [1] (2-methoxyl-propanol (MOP), organic solvent or mixture, 2-methoxyl-propanol (MOP), read-out: Solubility in MOP) is 50.1 mg/mL; in series [3], below 0.002 mg/mL. Moreover, the Dissolution time in series [2] worked out at 60 s.
As for `CC1(C)C(/C=C/C2=C(Sc3ccccc3C(=O)O)C(=C/C=C3/N(CCCCS(=O)(=O)[O-])c4ccccc4C3(C)C)/CCC2)=[N+](CCCCS(=O)(=O)[O-])c2ccccc21.[K+]` [IR-dye 1], the “Solubility in MOP” value in series [1] (2-methoxyl-propanol (MOP)) stood at 3.8 mg/mL. The “Solubility in H2O/NaOH at pH = 9” value in series [1] (water/NaOH, pH = 9) worked out at 40.1 g/l. Also, the Dissolution time in series [2] (listed as IR-1) amounted to 30 s.
Take `CC1(C)C(/C=C/C2=C(Sc3ccccc3C(=O)O)C(=C/C=C3/N(CCCCS(=O)(=O)[O-])c4ccccc4C3(C)C)/CCC2)=[N+](CCCCS(=O)(=O)[O-])c2ccccc21.[K+]` [IR-dye 2]: in series [1] (2-methoxyl-propanol (MOP)), the “Solubility in MOP” value was found to be 0.42 mg/mL. For the same compound, the “Solubility in H2O/NaOH at pH = 9” value in series [1] (water/NaOH, pH = 9) was above 50 g/l. In series [2] (listed as IR-2), this compound showed a Dissolution time of 20 s.
In the case of `CC1(C)C(/C=C/C2=C(Sc3ccccc3C(=O)O)C(=C/C=C3/N(CCCCS(=O)(=O)[O-])c4ccccc4C3(C)C)/CCC2)=[N+](CCCCS(=O)(=O)[O-])c2ccccc21.[K+]` [IR-dye 3], in series [1] (2-methoxyl-propanol (MOP)), the “Solubility in MOP” value is above 100 mg/mL. In addition, in series [1] (water/NaOH, pH = 9), the “Solubility in H2O/NaOH at pH = 9” value was above 50 g/l. The compound also yielded a Dissolution time in series [2] (listed as IR-3) of 30 s.
As to `CC1(C)C(/C=C/C2=C(Sc3ccccc3C(=O)O)C(=C/C=C3/N(CCCCS(=O)(=O)[O-])c4ccccc4C3(C)C)/CCC2)=[N+](CCCCS(=O)(=O)[O-])c2ccccc21.[K+]` [IR-dye 4], the “Solubility in MOP” value in series [1] (2-methoxyl-propanol (MOP)) was 5.7 mg/mL. For the same compound, in series [1] (water/NaOH, pH = 9), the “Solubility in H2O/NaOH at pH = 9” value is given as above 50 g/l. Further, the Dissolution time in series [2] (listed as IR-4) came to 20 s.
Consider `CC1(C)C(/C=C/C2=C(Sc3ccccc3C(=O)O)C(=C/C=C3/N(CCCCS(=O)(=O)[O-])c4ccccc4C3(C)C)/CCC2)=[N+](CCCCS(=O)(=O)[O-])c2ccccc21.[K+]` [IR-dye 5], for which the solubility in series [1] (2-methoxyl-propanol (MOP) with tri-ethylamine, organic solvent or mixture, 2-methoxyl-propanol (MOP), tri-ethylamine was added to dissolve the dye, read-out: Solubility in MOP) was 91.3 mg/mL; in series [1] (water/NaOH, pH 9, aqueous buffer, water/NaOH, pH = 9, read-out: Solubility in H2O/NaOH at pH = 9), above 50 mg/mL. Besides, in series [2] (listed as IR-5), the Dissolution time stood at 25 s.
